{"source": "paper PMC8659279", "about": "“Identification of a Novel Delta Opioid Receptor Agonist Chemotype with Potential Negative Allosteric Modulator Capabilities” (Molecules, 2021)", "key": {"[1]": {"conditions": "cited from earlier work"}, "δOR [2]": {"biological_target": "T1, δOR (Mus musculus, UniProt P32300)", "T1 construct": "FLAG; expressed in transfected cells; host or cells: HEK 293", "T1 sequence (P32300 whole entry)": "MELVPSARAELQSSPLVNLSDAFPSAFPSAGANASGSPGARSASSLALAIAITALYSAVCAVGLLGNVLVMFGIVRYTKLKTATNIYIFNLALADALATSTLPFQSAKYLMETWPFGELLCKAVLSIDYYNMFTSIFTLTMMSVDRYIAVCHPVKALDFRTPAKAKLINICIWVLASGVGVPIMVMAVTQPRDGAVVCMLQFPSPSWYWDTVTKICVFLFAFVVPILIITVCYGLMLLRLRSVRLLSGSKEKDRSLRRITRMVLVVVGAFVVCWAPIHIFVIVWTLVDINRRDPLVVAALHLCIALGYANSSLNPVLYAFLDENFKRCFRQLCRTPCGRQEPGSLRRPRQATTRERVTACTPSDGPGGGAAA", "assay": "Assessment of allosteric modulation of Leu-enkephalin in δOR glosensor cAMP assay", "format": "cell-based"}, "κOR [3]": {"biological_target": "T2, κOR (Homo sapiens, UniProt P41145)", "T2 sequence (P41145 whole entry)": "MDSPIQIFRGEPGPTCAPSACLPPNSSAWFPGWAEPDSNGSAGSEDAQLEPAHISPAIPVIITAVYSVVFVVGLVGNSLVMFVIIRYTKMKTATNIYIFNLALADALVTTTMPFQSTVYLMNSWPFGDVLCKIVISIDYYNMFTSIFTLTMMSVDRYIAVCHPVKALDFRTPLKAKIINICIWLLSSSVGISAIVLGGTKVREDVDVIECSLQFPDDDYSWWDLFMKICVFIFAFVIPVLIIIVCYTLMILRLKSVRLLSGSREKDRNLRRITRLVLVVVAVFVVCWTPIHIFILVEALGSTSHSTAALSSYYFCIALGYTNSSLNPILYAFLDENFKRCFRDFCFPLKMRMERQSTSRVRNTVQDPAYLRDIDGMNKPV", "assay": "GloSensor cAMP inhibition assay (forskolin-induced cAMP)", "format": "cell-based", "conditions": "read-out: cAMP Potency (pIC50 ± SEM) (converted)"}, "δOR [4]": {"biological_target": "T3, δOR (Homo sapiens, UniProt P41143)", "T3 sequence (P41143 whole entry)": "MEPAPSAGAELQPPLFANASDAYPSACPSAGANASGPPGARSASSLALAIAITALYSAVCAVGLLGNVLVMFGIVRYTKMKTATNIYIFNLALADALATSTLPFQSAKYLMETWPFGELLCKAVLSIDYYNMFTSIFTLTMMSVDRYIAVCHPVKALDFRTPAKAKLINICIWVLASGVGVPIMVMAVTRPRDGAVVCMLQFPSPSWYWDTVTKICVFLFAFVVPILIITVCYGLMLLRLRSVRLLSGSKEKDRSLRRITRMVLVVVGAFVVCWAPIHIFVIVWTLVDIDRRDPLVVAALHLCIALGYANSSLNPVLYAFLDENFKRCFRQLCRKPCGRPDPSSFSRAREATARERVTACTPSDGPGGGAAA", "assay": "PathHunter β-arrestin 2 recruitment, CHO-human δOR cells", "format": "cell-based", "conditions": "read-out: β-ARR2 potency (pEC50) (converted)"}, "µOR [5]": {"biological_target": "µOR (Mus musculus, UniProt P42866)", "sequence (P42866 whole entry)": "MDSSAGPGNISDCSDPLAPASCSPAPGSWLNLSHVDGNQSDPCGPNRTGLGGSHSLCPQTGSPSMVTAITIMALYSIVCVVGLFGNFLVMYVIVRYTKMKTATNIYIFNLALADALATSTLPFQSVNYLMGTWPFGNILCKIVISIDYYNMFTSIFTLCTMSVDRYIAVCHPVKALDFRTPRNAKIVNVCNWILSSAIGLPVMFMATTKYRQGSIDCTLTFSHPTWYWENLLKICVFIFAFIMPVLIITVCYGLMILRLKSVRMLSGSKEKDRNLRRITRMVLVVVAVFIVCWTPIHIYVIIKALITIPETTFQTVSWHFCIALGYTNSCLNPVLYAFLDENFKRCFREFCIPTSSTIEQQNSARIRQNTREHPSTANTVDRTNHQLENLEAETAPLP", "assay": "GloSensor cAMP inhibition assay (forskolin-induced cAMP) in HEK 293 cells", "format": "cell-based", "conditions": "read-out: cAMP Potency (pIC50 ± SEM) (converted)"}, "κOR [6]": {"biological_target": "T2, κOR", "assay": "Radioligand binding assay with [3H]U69,593", "conditions": "read-out: Affinity (pKi ± SEM) (converted)"}, "δOR [7]": {"biological_target": "T3, δOR", "assay": "PathHunter β-arrestin 1 recruitment, U2OS cells (also library screen)", "format": "cell-based", "conditions": "read-out: β-ARR1 potency (pEC50) (converted)"}, "µOR [8]": {"biological_target": "T4, µOR (Homo sapiens, UniProt P35372)", "T4 sequence (P35372 whole entry)": "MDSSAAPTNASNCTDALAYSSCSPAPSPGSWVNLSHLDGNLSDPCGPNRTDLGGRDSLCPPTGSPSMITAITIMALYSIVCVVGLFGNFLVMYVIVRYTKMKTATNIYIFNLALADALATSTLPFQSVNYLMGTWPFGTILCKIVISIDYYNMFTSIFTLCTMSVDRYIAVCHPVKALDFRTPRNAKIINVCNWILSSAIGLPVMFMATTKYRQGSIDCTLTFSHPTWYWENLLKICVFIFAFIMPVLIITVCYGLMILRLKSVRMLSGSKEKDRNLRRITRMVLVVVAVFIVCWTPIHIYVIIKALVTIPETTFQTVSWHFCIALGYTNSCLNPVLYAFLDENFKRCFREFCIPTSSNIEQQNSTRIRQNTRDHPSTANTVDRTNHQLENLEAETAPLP", "assay": "Radioligand binding assay with [3H]DAMGO", "conditions": "read-out: Affinity (pKi ± SEM) (converted)"}, "δOR [9]": {"biological_target": "T1, δOR", "assay": "GloSensor cAMP inhibition assay (forskolin-induced cAMP) in HEK 293 cells", "format": "cell-based"}, "δOR [10]": {"biological_target": "T3, δOR", "assay": "Radioligand binding assay with [3H]DPDPE"}, "δOR [11]": {"biological_target": "T3, δOR", "set-up": "method as in PMID 26507558, PMID 20850307, doi:10.1016/S0021-5198(19)49890-9", "conditions": "ref [14],[18],[19]; cited from earlier work"}, "µOR [12]": {"biological_target": "T4, µOR", "set-up": "method as in PMID 27533032", "conditions": "ref [32]; read-out: affinity at the µOR; cited from earlier work"}, "κOR [13]": {"biological_target": "T2, κOR", "set-up": "method as in PMID 28339199", "conditions": "ref [36]; read-out: potency at the κOR; cited from earlier work"}, "κOR [14]": {"biological_target": "T2, κOR", "set-up": "method as in PMID 28339199", "conditions": "ref [36]; read-out: affinity at the κOR; cited from earlier work"}, "[15]": {"conditions": "Table 2, three or more independent trials, read-out: pIC50 ± SEM to inhibit cAMP signaling at δOR (converted)"}}, "note": "Read-outs that look alike come from different tables or passages of the source."}
{"smiles": "CCN(CC)C(=O)c1ccc([C@H](c2cccc(N)c2)N2C[C@@H](C)N(Cc3ccc(F)cc3)C[C@@H]2C)cc1", "note": "[AZD2327]", "values": [{"measurement": "proconvulsant effects", "setting": "[1]; ref [8]", "value": "proconvulsant effects"}]}
{"smiles": "COc1cccc(C=NNC(=O)c2cc(-c3cccs3)n[nH]2)c1O", "note": "[Compound 1, N’-(2-hydroxy-3-methoxybenzylidene)-3-(2-thienyl)-1H-pyrazole-5-carbohydrazide]", "values": [{"measurement": "modulation of Leu-enkephalin activity in cAMP glosensor assay", "setting": "δOR [2]; Leu-enkephalin co-incubated with 0.1-10 µM compound 1", "value": "negative allosteric modulator (NAM)-agonist"}, {"measurement": "β (change in Leu-enkephalin Emax)", "setting": "δOR [2]; Leu-enkephalin co-incubated with increasing concentrations of compound 1", "value": 1}, {"measurement": "IC50", "setting": "κOR [3]", "value": "> 10", "unit": "µM"}, {"measurement": "EC50", "setting": "δOR [4]", "value": "> 10", "unit": "µM"}, {"measurement": "IC50", "setting": "µOR [5]", "value": "> 10", "unit": "µM"}, {"measurement": "Ki", "setting": "κOR [6]", "value": "> 10", "unit": "µM"}, {"measurement": "EC50", "setting": "δOR [7]", "value": "> 10", "unit": "µM"}, {"measurement": "Ki", "setting": "µOR [8]", "value": "> 10", "unit": "µM"}, {"measurement": "IC50", "setting": "δOR [9]; [15]", "value": 1, "unit": "µM"}, {"measurement": "IC50", "setting": "δOR [9]; δOR, read-out: cAMP Potency (pIC50 ± SEM) (converted)", "value": 0.977, "unit": "µM"}, {"measurement": "affinity and potency at δOR stronger than for µOR and κOR (selectivity)", "setting": "δOR [10]; δOR over µOR and κOR", "value": "roughly 10 fold"}, {"measurement": "Ki", "setting": "δOR [10]; δOR, read-out: Affinity (pKi ± SEM) (converted)", "value": 1.15, "unit": "µM"}]}
{"smiles": "O=C(N/N=C/c1ccccc1)c1cc(-c2cccs2)n[nH]1", "note": "[Compound 2]", "values": [{"measurement": "IC50", "setting": "δOR [9]; [15]", "value": 12.6, "unit": "µM"}]}
{"smiles": "Cc1cccc(/C=N/NC(=O)c2cc(-c3cccs3)n[nH]2)c1", "note": "[Compound 3]", "values": [{"measurement": "IC50", "setting": "δOR [9]; [15]", "value": 7.94, "unit": "µM"}]}
{"smiles": "O=C(N/N=C/c1ccc(Cl)cc1)c1cc(-c2cccs2)n[nH]1", "note": "[Compound 4]", "values": [{"measurement": "IC50", "setting": "δOR [9]; [15]", "value": 12.6, "unit": "µM"}]}
{"smiles": "CCOc1cccc(/C=N/NC(=O)c2cc(-c3ccco3)n[nH]2)c1O", "note": "[Compound 5]", "values": [{"measurement": "IC50", "setting": "δOR [9]; [15]", "value": 10, "unit": "µM"}]}
{"smiles": "O=C(N/N=C/c1ccc(O)c(O)c1)c1cc(-c2cccs2)n[nH]1", "note": "[Compound 6]", "values": [{"measurement": "IC50", "setting": "δOR [9]; [15]", "value": 12.6, "unit": "µM"}]}
{"smiles": "COc1cc(/C=N/NC(=O)c2cc(-c3cccs3)n[nH]2)cc(OC)c1OC", "note": "[Compound 8]", "values": [{"measurement": "IC50", "setting": "δOR [9]; [15]", "value": 10, "unit": "µM"}]}
{"smiles": "COc1cccc(/C=N/NC(=O)c2cc(-c3cccs3)n[nH]2)c1", "note": "[Compound 9]", "values": [{"measurement": "IC50", "setting": "δOR [9]; [15]", "value": 15.8, "unit": "µM"}]}
{"smiles": "CCOc1cccc(/C=N/NC(=O)c2cc(-c3ccc(Cl)s3)n[nH]2)c1O", "note": "[Compound 10]", "values": [{"measurement": "IC50", "setting": "δOR [9]; [15]", "value": 7.94, "unit": "µM"}]}
{"smiles": "COc1ccc(/C=N/NC(=O)c2cc(-c3ccc(C)s3)n[nH]2)cc1OC", "note": "[Compound 11]", "values": [{"measurement": "IC50", "setting": "δOR [9]; [15]", "value": 3.98, "unit": "µM"}]}
{"smiles": "COc1cccc(/C=N/NC(=O)c2cc(-c3ccco3)n[nH]2)c1O", "note": "[Compound 12]", "values": [{"measurement": "IC50", "setting": "δOR [9]; [15]", "value": 7.94, "unit": "µM"}]}
{"smiles": "COc1cccc(/C=N/NC(=O)c2cc(-c3ccc(Cl)s3)n[nH]2)c1O", "note": "[Compound 13]", "values": [{"measurement": "IC50", "setting": "δOR [9]; [15]", "value": 7.94, "unit": "µM"}]}
{"smiles": "COc1cccc(/C=N/NC(=O)c2cc(-c3ccc(Br)s3)n[nH]2)c1O", "note": "[Compound 14]", "values": [{"measurement": "IC50", "setting": "δOR [9]; [15]", "value": 10, "unit": "µM"}]}
{"smiles": "COc1cc(/C=N/NC(=O)c2cc(-c3ccc(C)s3)n[nH]2)ccc1O", "note": "[Compound 15]", "values": [{"measurement": "IC50", "setting": "δOR [9]; [15]", "value": 10, "unit": "µM"}]}
{"smiles": "CN1CCC23Cc4nc5ccccc5cc4CC2(O)C1Cc1ccc(O)cc13", "note": "(stereo not drawn) [KNT-127]", "values": [{"measurement": "Emax for β-arrestin 2 recruitment", "setting": "δOR [11]", "value": 70, "unit": "%"}, {"measurement": "convulsions", "setting": "[1]; ref [14],[18],[19]", "value": "do not induce convulsions"}]}
{"smiles": "CN(C)C(=O)c1ccc(C(=C2CCN(Cc3cncs3)CC2)c2cccc(C(N)=O)c2)cc1", "note": "[PN6047]", "values": [{"measurement": "proconvulsant effects", "setting": "[1]; ref [17]", "value": "not proconvulsant"}]}
{"smiles": "C[C@H](Cc1cccs1)NC(=O)NC[C@H](Cc1ccc(O)cc1)N(C)C", "note": "[PZM21]", "values": [{"measurement": "Ki", "setting": "µOR [12]", "value": 0.001, "unit": "µM"}]}
{"smiles": "CN1CCC2(c3cccc(O)c3)Cc3nc4ccccc4cc3CC2C1", "note": "(stereo not drawn) [TAN-67]", "values": [{"measurement": "Emax for β-arrestin 2 recruitment", "setting": "δOR [11]", "value": 30, "unit": "%"}]}
{"smiles": "CC(c1cccc(O)c1)N(C)CCc1nccn1C", "note": "(stereo not drawn) [compound 81]", "values": [{"measurement": "EC50", "setting": "κOR [13]", "value": 0.53, "unit": "µM"}, {"measurement": "Ki", "setting": "κOR [14]", "value": 0.16, "unit": "µM"}]}
